15 compounds from patent publication US11040028B2, “Penicinotam derivative, preparation method and use thereof” (OCEAN UNIVERSITY OF CHINA, priority 2017, dated 2021) can be followed below.

Holding throughout (format): cell-based
One test concerns BHK-21 cells. The test is described as follows: Anti-fibrosis activity test: inhibition of BHK-21 cell proliferation (CCK-8). Particulars: Mesocricetus auratus, BHK-21, 48 h, CCK-8, 48 hours after administration. The method, boiled down:
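Cells plated 2×10^4 cells/mL; 24 h attach; compound dilutions, triplicate, 48 h, 37° C/5% CO2; CCK-8 2 h; A450; IR = (1−Ai/Ao)×100%; IC50 by curve fit.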

Test [1] deals with human lung fibroblasts HFL1. Description: Anti-fibrosis activity test: inhibition of proliferation of human lung fibroblasts HFL1 (CCK-8). To be noted: Homo sapiens, HFL1, 48 h, human lung fibroblasts HFL1, CCK-8, 48 hours. The gist of the method:
(§1)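 Read-out: absorbance at 450 nm after 2 h with CCK-8, following 48 h of compound exposure of adhered cells (2×10^4 cells/mL, 24 h attachment, 37° C, 5% CO2). Proliferation inhibition was taken relative to the blank control, and IC50 values were calculated from it.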

The subject of test [2] is human hepatic stellate cells LX-2. The test is described as follows: Anti-fibrosis activity test: inhibition of proliferation of human hepatic stellate cells LX-2 (CCK-8). Particulars: Homo sapiens, 48 h, human hepatic stellate cells LX-2, CCK-8, 48 hours. The gist of the method: as §1
Test [3] deals with human fibrosarcoma cells HT-1080. The test is described as follows: Anti-fibrosis activity test: inhibition of proliferation of human fibrosarcoma cells HT-1080 (CCK-8). To be noted: Homo sapiens, HT-1080, 48 h, human fibrosarcoma cells HT-1080, CCK-8, 48 hours. The method, boiled down:
as §1

Test [4] has as its system human dermal fibroblasts CCC-ESF-1. Description: Anti-fibrosis activity test: inhibition of proliferation of human dermal fibroblasts CCC-ESF-1 (CCK-8). Particulars: Fibroblast; human dermal fibroblasts CCC-ESF-1, CCK-8, 48 hours. The method, boiled down:
as §1

Test [5] has as its system human embryonic lung fibroblast IMR-90. Description: Anti-fibrosis activity test: inhibition of proliferation of human embryonic lung fibroblast IMR-90 (CCK-8). Particulars: human embryonic lung fibroblast IMR-90, CCK-8, 48 hours. The method, boiled down: as §1
The subject of test [6] is cardiac fibroblast RAT-iCell-C002. The test is described as follows: Anti-fibrosis activity test: inhibition of proliferation of cardiac fibroblast RAT-iCell-C002 (CCK-8). To be noted: Cardiac fibroblast, 48 h, cardiac fibroblast RAT-iCell-C002, CCK-8, 48 hours. The method, boiled down: as §1
In the next test the test system is NF-κB. Description: Immunological activity test: inhibition of NF-κB activity. To be noted: initial concentration of 30 μM; a/b isomers given as first/second symbol; read-out: IC50 (μM), inhibitory activity against NF-κB. The method, boiled down: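 IC50 values come from further analysis of the data after an initial test at a single 30 μM concentration. Parthenolide served as the reference inhibitor.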

The subject of test [7] is mouse macrophages (RAW264.7). Description: Lipopolysaccharide-induced NO secretion in macrophages (Griess). To be noted: Mus musculus, RAW264.7, 24 h, RAW264.7, LPS 1 μg/ml, a/b isomers given as first/second symbol, read-out: IC50 (μM), inhibition of lipopolysaccharide-induced NO secretion in macrophages. The gist of the method: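 Absorbance at 548 nm after Griess reagent addition to culture supernatant gave NO content; inhibition rate was derived relative to blank control. Cells were mouse RAW264.7 macrophages exposed to compounds and 1 μg/ml LPS for 24 hours.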

On to `O=C1c2c(nc3ccccc3c2OCc2ccccc2C(F)(F)F)-c2cccn21` [Compound 581b, 9-((2-(trifluoromethyl)benzyl)oxy)-10H-pyrrolizino[1,2-b]quinolin-10-one], for which the IC50 (with BHK-21 cells; in [1]; in [2]; in test [3]; in test [4]; in test [5]) was 0.05 to 5 mM in each case. Moreover, the figures for the IC50 (in test [6]; in the test on NF-κB; in test [7]) were 0.05 to 5 mM, 1 to 10 µM and 1 to 10 µM, respectively.

As to `O=C1c2c(n(Cc3cccc(Cl)c3F)c3ccccc3c2=O)-c2cccn21` [Compound 582a, 4-(3-Chloro-2-fluorobenzyl)-9H-pyrrolizino[1,2-b]quinoline-9,10(4H)-dione], the IC50 (in the test on BHK-21 cells; in test [1]; in [2]; in test [3]; in test [4]; in test [5]) was 0.05 to 5 mM in each case. Further, the IC50 in [6] fell in the range of 0.05 to 5 mM; with NF-κB it was 1 to 10 µM; in [7], 1 to 10 µM.

Turning to `O=C1c2c(nc3ccccc3c2OCc2cccc(Cl)c2F)-c2cccn21` [Compound 582b, 9-((3-chloro-2-fluorobenzyl)oxy)-10H-pyrrolizino[1,2-b]quinolin-10-one], the IC50 (in the test with BHK-21 cells; in [1]; in test [2]; in test [3]; in [4]; in test [5]) was 0.05 to 5 mM throughout. Also, the values for the IC50 (in test [6]; in the test with NF-κB; in [7]) were 0.05 to 5 mM, 1 to 10 µM and 1 to 10 µM, respectively.

Regarding `O=C1c2c(n(Cc3cccc([N+](=O)[O-])c3)c3ccccc3c2=O)-c2cccn21` [Compound 583a, 4-(3-Nitrobenzyl)-9H-pyrrolizino[1,2-b]quinoline-9,10(4H)-dione], the IC50 (with BHK-21 cells; in [1]; in test [2]; in test [3]; in [4]; in test [5]) was 0.05 to 5 mM throughout. For the same compound, the IC50 in test [6] was 0.05 to 5 mM; in the test with NF-κB it was 1 to 10 µM; in [7], 1 to 10 µM.

Consider `O=C1c2c(nc3ccccc3c2OCc2cccc([N+](=O)[O-])c2)-c2cccn21` [Compound 583b, 9-((3-nitrobenzyl)oxy)-10H-pyrrolizino[1,2-b]quinolin-10-one], for which the IC50 (in the test on BHK-21 cells; in test [1]; in test [2]; in [3]; in test [4]; in test [5]) was 0.05 to 5 mM each time. Moreover, the results for the IC50 (in test [6]; in the test on NF-κB; in test [7]) were 0.05 to 5 mM, 1 to 10 µM and 1 to 10 µM, respectively.

Consider `O=C1c2c(n(Cc3ccc(F)c(F)c3F)c3ccccc3c2=O)-c2cccn21` [Compound 584a, 4-(2,3,4-Trifluorobenzyl)-9H-pyrrolizino[1,2-b]quinoline-9,10(4H)-dione], for which the IC50 in the test on BHK-21 cells is less than 0.05 mM; in test [1] it was 0.05 to 5 mM; in [2], 0.05 to 5 mM; in test [3], less than 0.05 mM; in [4], 0.05 to 5 mM; in [5], 0.05 to 5 mM. The IC50 in test [6] was 0.05 to 5 mM; with NF-κB, 0.1 to 1 µM; in [7], 1 to 10 µM.

Consider `O=C1c2c(nc3ccccc3c2OCc2ccc(F)c(F)c2F)-c2cccn21` [Compound 584b, 9-((2,3,4-trifluorobenzyl)oxy)-10H-pyrrolizino[1,2-b]quinolin-10-one], for which the IC50 in the test on BHK-21 cells is 0.05 to 5 mM; in test [1], 0.05 to 5 mM; in test [2] it was 0.05 to 5 mM; in [3], less than 0.05 mM; in [4], 0.05 to 5 mM; in [5] it was 5 to 20 mM. The IC50 in [6] lay within 0.05 to 5 mM; with NF-κB, 0.1 to 1 µM; in [7] it was 1 to 10 µM.

For the compound `O=C1c2c(nc3ccccc3c2OCc2cc(F)c(F)cc2F)-c2cccn21` [Compound 585b, 9-((2,4,5-trifluorobenzyl)oxy)-10H-pyrrolizino[1,2-b]quinolin-10-one], the IC50 (with BHK-21 cells; in [1]; in [2]; in test [3]; in test [4]; in test [5]) was 0.05 to 5 mM each time. Also, the IC50 fell in the range of 0.05 to 5 mM in test [6], 1 to 10 µM with NF-κB and 1 to 10 µM in test [7].

Take `O=C1c2c(n(Cc3c(F)c(F)c(F)c(F)c3F)c3ccccc3c2=O)-c2cccn21` [Compound 586a, 4-((Perfluorophenyl)methyl)-9H-pyrrolizino[1,2-b]quinoline-9,10(4H)-dione]: the IC50 (in the test with BHK-21 cells; in test [1]; in [2]; in test [3]; in test [4]; in test [5]) was 0.05 to 5 mM throughout. In addition, the IC50 in test [6] lay in the range of 0.05 to 5 mM; with NF-κB it was 1 to 10 µM; in test [7], 0.1 to 1 µM.

For `O=C1c2c(nc3ccccc3c2OCc2c(F)c(F)c(F)c(F)c2F)-c2cccn21` [Compound 586b, 9-((perfluorophenyl)methoxy)-10H-pyrrolizino[1,2-b]quinolin-10-one], the IC50 (with BHK-21 cells; in test [1]; in test [2]; in test [3]; in test [4]; in test [5]) was 0.05 to 5 mM throughout. The results for the IC50 (in [6]; in the test with NF-κB; in [7]) were 0.05 to 5 mM, 1 to 10 µM and 1 to 10 µM, respectively.

For `O=C1c2c(n(Cc3cc(F)c(F)c(F)c3F)c3ccccc3c2=O)-c2cccn21` [Compound 587a, 4-(2,3,4,5-Tetrafluorobenzyl)-9H-pyrrolizino[1,2-b]quinoline-9,10(4H)-dione], the IC50 (in the test with BHK-21 cells; in [1]; in test [2]; in test [3]; in [4]; in [5]) was 0.05 to 5 mM throughout. In addition, the results for the IC50 (in [6]; in the test with NF-κB; in test [7]) were 0.05 to 5 mM, 1 to 10 µM and 1 to 10 µM, respectively.

Turning to `O=C1c2c(nc3ccccc3c2OCc2cc(F)c(F)c(F)c2F)-c2cccn21` [Compound 587b, 9-((2,3,4,5-tetrafluorobenzyl)oxy)-10H-pyrrolizino[1,2-b]quinolin-10-one], the IC50 (in the test with BHK-21 cells; in test [1]; in test [2]; in [3]; in test [4]; in [5]) was 0.05 to 5 mM each time. Also, the figures for the IC50 (in test [6]; in the test on NF-κB; in [7]) were 0.05 to 5 mM, 1 to 10 µM and 1 to 10 µM, respectively.

Take `O=C1c2c(n(Cc3ccc(F)cc3)c3ccccc3c2=O)-c2cccn21` [Compound 588a, 4-(4-Fluorobenzyl)-9H-pyrrolizino[1,2-b]quinoline-9,10(4H)-dione]: the IC50 (in the test with BHK-21 cells; in test [1]; in test [2]; in test [3]; in test [4]; in [5]) was 0.05 to 5 mM each time. Moreover, the results for the IC50 (in [6]; in the test with NF-κB; in test [7]) were 0.05 to 5 mM, 1 to 10 µM and 1 to 10 µM, respectively.

Consider `O=C1c2c(nc3ccccc3c2OCc2ccc(F)cc2)-c2cccn21` [Compound 588b, 9-((4-fluorobenzyl)oxy)-10H-pyrrolizino[1,2-b]quinolin-10-one], for which the half-maximal inhibitory concentration (IC50) (in the test with BHK-21 cells; in test [1]; in test [2]; in [3]; in test [4]; in [5]) was 0.05 to 5 mM each time. Further, the IC50 in test [6] was in the range of 0.05 to 5 mM; in the test with NF-κB, 1 to 10 µM; in [7], 1 to 10 µM.

With `O=C1c2c(n(Cc3ccc(Cl)cc3)c3ccccc3c2=O)-c2cccn21` [Compound 589a, 4-(4-Chlorobenzyl)-9H-pyrrolizino[1,2-b]quinoline-9,10(4H)-dione], the IC50 in the test on BHK-21 cells is less than 0.05 mM; in test [1], 0.05 to 5 mM; in test [2], less than 0.05 mM; in test [3] it was 0.05 to 5 mM; in [4], 0.05 to 5 mM; in [5], 0.05 to 5 mM. Further, the IC50 in test [6] was 0.05 to 5 mM; in the test on NF-κB, 1 to 10 µM; in test [7], 1 to 10 µM.
